Assay results taken from publication PMC6690746 (European journal of medicinal chemistry, 2018).
Entries after “also recorded” stand apart in the source; their conditions may differ.

Columns and labels:
Assay type in all cases: cell-based, human
T98G cells = assay: Antitumor activity; conditions: for Maximal killing activity: concentration not stated at this place; for EC50: Homo sapiens, read-out: Antitumor activity EC50; for Fold increase in EC50 value compared with 8: versus compound 8 (87 nM)
[1] = tested on: NCI-60 cancer cell line panel; assay: NCI 60 cell screen; conditions: for Loss in cell number: NCI-60, the 4 cell lines killed
HepG2 (liver) = assay: Cell-killing activity; conditions: HepG2, at 1–10 μM
PD-GBM cells = assay: Cell-killing activity in PD-GBM cells, all subtypes together; conditions: applied at 1–10 μM
[2] = NCI-60, the 11 cell lines with halted proliferation
[3] = NCI-60, the 41 cell lines with reduced proliferation rate

CCn1c2ccccc2c2cc(C(=O)c3ccc(C)c4ccccc34)ccc21 [Compound 8, 9-ethyl-3-[(4-methylnaphthalen-1-yl)carbonyl]-9H-carbazole]
Maximal killing activity (T98G cells; 72 h): 35–45%
Loss in cell number [1]: 13% to 60%
Percent growth inhibition [1, 2]: 9% to −1%
Percent growth inhibition [1, 3]: 67% to 10%

COC(=O)Nc1nc2cc(C(=O)c3cccs3)ccc2[nH]1 [Compound 3, nocodazole, reference compound]
Maximal killing (% ± SEM) (T98G cells; 72 h, at 10 μM): 45.6% ± 1.7
EC50 (T98G cells; 72 h): 29 nM

CCn1c2ccccc2c2cc(C(=S)c3ccc(C)c4ccccc34)ccc21 [Compound 26, 9-ethyl-3-(4-methylnaphthalene-1-carbothioyl)-9H-carbazole]
Effect on T98G cells in words (T98G cells; 72 h): only weakly active at concentrations above five micromolar or essentially inactive; also recorded: did not significantly affect T98G cell viability

CCCn1c2ccccc2c2cc(C(=O)c3ccc(C)c4ccccc34)ccc21 [Compound 16, 9-propyl-3-[(4-methylnaphthalen-1-yl)carbonyl]-9H-carbazole]
Effect on T98G cells in words (T98G cells; 72 h): only weakly active at concentrations above five micromolar or essentially inactive; also recorded: did not significantly affect T98G cell viability
Fold increase in EC50 value compared with 8 (T98G cells): 115 fold

CCn1c2c(c3ccccc31)CN(C(=O)c1ccc(C)c3ccccc13)CC2 [Compound 35, 5-ethyl-2-[(4-methylnaphthalen-1-yl)carbonyl]-1H,2H,3H,4H,5H-pyrido[4,3-b]indole]
Maximal killing activity (T98G cells; 72 h): 35–45%

Cc1ccc(C(=O)c2ccc3c(c2)c2ccccc2n3CC(F)(F)F)c2ccccc12 [Compound 18, 3-(4-methylnaphthalene-1-carbonyl)-9-(2,2,2-trifluoroethyl)-9H-carbazole]
Effect on T98G cells in words (T98G cells; 72 h): only weakly active at concentrations above five micromolar or essentially inactive
Maximal killing activity (T98G cells; 72 h): 35–45%
Fold increase in EC50 value compared with 8 (T98G cells): 64 fold

CCn1c2ccccc2c2cc(C(=O)c3cccc4c3NCCC4)ccc21 [Compound 24, 9-ethyl-3-(1,2,3,4-tetrahydroquinoline-8-carbonyl)-9H-carbazole]
Effect on T98G cells in words (T98G cells; 72 h): only weakly active at concentrations above five micromolar or essentially inactive; also recorded: did not significantly affect T98G cell viability

CC[C@]1(O)C[C@@H]2CN(CCc3c([nH]c4ccccc34)[C@@](C(=O)OC)(c3cc4c(cc3OC)N(C)[C@H]3[C@@](O)(C(=O)OC)[C@H](OC(C)=O)[C@]5(CC)C=CCN6CC[C@]43[C@@H]65)C2)C1 [vinblastine, reference compound]
Maximal killing activity (T98G cells; 72 h): 36.0% ± 2.3

CCn1c2ccccc2c2cc(C(=O)N3CCCc4ccccc43)ccc21 [Compound 25, 9-ethyl-3-[(1,2,3,4-tetrahydroquinolin-1-yl)carbonyl]-9H-carbazole]
Activity in HepG2 cells in words (HepG2 (liver)): inactive
PD-GBM cells killed (PD-GBM cells): 95–100%

CCn1c2ccccc2c2cc(C(=O)c3cccc4c3CCCN4)ccc21 [Compound 23]
Effect on T98G cells in words (T98G cells; 72 h): only weakly active at concentrations above five micromolar or essentially inactive; also recorded: did not significantly affect T98G cell viability
Effect on NCI-60 cell lines in words ([1]; NCI-60 panel): did not significantly affect the viability and proliferation of any of the cell lines
Growth inhibition: Delta ([1]; NCI-60 panel): 10.42
Growth inhibition: Mean ([1]; NCI-60 panel, over all cell lines): 102.05

CCn1c2ccccc2c2cc(C(=O)Cc3ccccc3)ccc21 [Compound 13, 1-(9-ethyl-9H-carbazol-3-yl)-2-phenylethan-1-one]
Effect on T98G cells in words (T98G cells; 72 h): only weakly active at concentrations above five micromolar or essentially inactive; also recorded: did not significantly affect T98G cell viability

CCn1c2ccccc2c2cc(C(=O)c3cccc4ccccc34)ccc21 [Compound 14, 9-ethyl-3-(naphthalene-1-carbonyl)-9H-carbazole]
Fold increase in EC50 value compared with 8 (T98G cells): 20 fold

CCn1c2ccccc2c2cc(C(=O)c3cccc4ncccc34)ccc21 [Compound 20, 9-ethyl-3-(quinoline-5-carbonyl)-9H-carbazole]
Loss in cell number [1]: 13% to 60%
Percent growth inhibition [1, 2]: 9% to −1%
Percent growth inhibition [1, 3]: 67% to 10%

CCn1c2ccccc2c2cc(C(O)c3ccc(C)c4ccccc34)ccc21 (stereo not drawn) [Compound 27, (9-ethyl-9H-carbazol-3-yl)(4-methylnaphthalen-1-yl)methanol]
Fold increase in EC50 value compared with 8 (T98G cells): 6 fold
Loss in cell number [1]: 13% to 60%
Percent growth inhibition [1, 2]: 9% to −1%
Percent growth inhibition [1, 3]: 67% to 10%

CCn1c2ccccc2c2cc(C(=O)N3CCN(C)CC3)ccc21 [Compound 9, 9-ethyl-3-(4-methylpiperazine-1-carbonyl)-9H-carbazole]
Effect on T98G cells in words (T98G cells; 72 h): only weakly active at concentrations above five micromolar or essentially inactive; also recorded: did not significantly affect T98G cell viability

COc1ccc(/C=C\c2cc(OC)c(OC)c(OC)c2)cc1O [Compound 1, combretastatin A-4, reference compound]
Maximal killing (T98G cells; 72 h, at 10 nM): 30.4% ± 2.1
EC50 (T98G cells; 72 h): 0.6 nM
